Results taken from US20110040086A1, “Novel Beta-Lactam Antibiotics, Methods for Their Production, and Their Use” (DRITTE PATENTPORTFOLIO BETEILIGUNGSGESELLSCHAFT MB, priority 2007, published 2011).

What was measured:
[1] = tested on: Bacillus megaterium SBUG 1152; assay: agar diffusion test (Test System 1, antimicrobial effect); type: cell-based
How it was run: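 B. megaterium SBUG 1152 grown overnight (17 h, 37° C., 180 rpm) and seeded at 10^6 cells per 10 ml nutrient agar. Compound at 10, 50 and 100 μg, dissolved in methanol or water, applied to paper discs. Inhibition-zone diameter (mm) read after 20 h at 37° C.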

B. subtilis AWD 166 = assay: agar diffusion test (antimicrobial effect); type: cell-based, Bacillus subtilis
How it was run: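 Nutrient agar seeded with B. subtilis AWD 166 to give dense non-confluent colonies; compounds in methanol or distilled water applied to discs at 10, 50, 100 μg. After 20 h at 37 °C, inhibition zone diameter measured in mm.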

[2] = tested on: Enterococcus faecalis 769; assay: agar diffusion test (Test System II, multi-resistant germs); type: cell-based; design: key: r = resistant (no detectable zone of inhibition)
How it was run: (§1)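 Disc diffusion on Müller-Hinton II agar; inoculum McFarland 0.5 in saline, streaked in three directions. Discs carry 10/50/100 μg compound (MeOH or water). 37 °C, 18-20 h; read-out: zone-of-inhibition diameter.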

[3] = tested on: Staphylococcus aureus 315; assay: as above; type: cell-based; design: key: r = resistant (no detectable zone of inhibition)
How it was run: as §1

E. faecalis 945 = assay: as above; type: cell-based, Enterococcus faecalis; design: key: r = resistant (no detectable zone of inhibition)
How it was run: as §1

S. aureus 33490 = assay: as above; type: cell-based, Staphylococcus aureus; design: key: r = resistant (no detectable zone of inhibition)
How it was run: as §1

S. aureus 34289 = assay: as above; type: cell-based, Staphylococcus aureus; design: key: r = resistant (no detectable zone of inhibition)
How it was run: as §1

S. aureus 36881 = assay: as above; type: cell-based, Staphylococcus aureus; design: key: r = resistant (no detectable zone of inhibition)
How it was run: as §1

S. aureus 39105 = assay: as above; type: cell-based, Staphylococcus aureus; design: key: r = resistant (no detectable zone of inhibition)
How it was run: as §1

S. aureus 520 = assay: as above; type: cell-based, Staphylococcus aureus; design: key: r = resistant (no detectable zone of inhibition)
How it was run: as §1

S. aureus 526 = assay: as above; type: cell-based, Staphylococcus aureus; design: key: r = resistant (no detectable zone of inhibition)
How it was run: as §1

[4] = tested on: S. aureus North Germany strain; assay: as above; type: cell-based, Staphylococcus aureus; design: key: r = resistant (no detectable zone of inhibition)
How it was run: as §1

S. aureus 38418 = assay: as above; type: cell-based, Staphylococcus aureus
How it was run: as §1

S. aureus ATCC 6538 = assay: as above; type: cell-based, Staphylococcus aureus
How it was run: as §1

S. epidermidis 1068 = assay: as above; type: cell-based, Staphylococcus epidermidis; design: key: r = resistant (no detectable zone of inhibition)
How it was run: as §1

S. epidermidis 1071 = assay: as above; type: cell-based, Staphylococcus epidermidis; design: key: r = resistant (no detectable zone of inhibition)
How it was run: as §1

S. epidermidis 563 = assay: as above; type: cell-based, Staphylococcus epidermidis; design: key: r = resistant (no detectable zone of inhibition)
How it was run: as §1

S. epidermidis 847 = assay: as above; type: cell-based, Staphylococcus epidermidis; design: key: r = resistant (no detectable zone of inhibition)
How it was run: as §1

S. epidermidis 125 = assay: as above; type: cell-based, Staphylococcus epidermidis
How it was run: as §1

Measured: Diameter of zone of inhibition

O=C(O)C1=C(Cl)CSC2C(NC(=O)C(NC3=C(C(=O)NCCO)C(=O)C=CC3=O)c3ccccc3)C(=O)N12 (stereo not drawn) [1i, 3-chlorine-7-{2-[2-(2-hydroxyethylcarbamoyl)-3,6-dioxocyclohexa-1,4-dienylamino]-2-phenyl-acetylamino}-8-oxo-1-thia-5-azabicyclo[4.2.0]oct-3-en-4-carboxylic acid]
38 mm: B. subtilis AWD 166; Quantity n 0.29
16 mm: [4]; Quantity n 0.29
26 mm: [1]; Quantity n 0.029 | S. aureus 33490; Quantity n [μmol] 0.29 | S. aureus ATCC 6538; Quantity n 0.029 | S. epidermidis 1071; Quantity n 0.29
14 mm: [3]; Quantity n 0.29 | S. aureus 33490; Quantity n [μmol] 0.029 | S. epidermidis 1071; Quantity n 0.029
18 mm: S. aureus 36881; Quantity n 0.29 | S. aureus 39105; Quantity n 0.14 | S. epidermidis 1068; Quantity n 0.14
28 mm: S. epidermidis 125; Quantity n 0.14
12 mm: S. aureus 36881; Quantity n 0.14 | [4]; Quantity n 0.14 | S. epidermidis 1068; Quantity n 0.029 | S. epidermidis 563; Quantity n 0.029 | S. epidermidis 847; Quantity n [mol] 0.029
30 mm: B. subtilis AWD 166; Quantity n 0.029 | S. aureus 38418; Quantity n [mol] 0.14
20 mm: S. aureus 38418; Quantity n [mol] 0.029 | S. epidermidis 847; Quantity n [mol] 0.14 | S. epidermidis 125; Quantity n 0.029
36 mm: B. subtilis AWD 166; Quantity n 0.14 | S. aureus ATCC 6538; Quantity n 0.29
r: [2]; Quantity n 0.029 | [2]; Quantity n 0.14 | [2]; Quantity n 0.29 | [3]; Quantity n 0.029 | E. faecalis 945; Quantity n 0.029 | E. faecalis 945; Quantity n 0.14 | E. faecalis 945; Quantity n 0.29 | S. aureus 34289; Quantity n [mol] 0.029 | S. aureus 34289; Quantity n [mol] 0.14 | S. aureus 34289; Quantity n [mol] 0.29 | S. aureus 36881; Quantity n 0.029 | S. aureus 39105; Quantity n 0.029 | S. aureus 520; Quantity n [mol] 0.029 | S. aureus 520; Quantity n [mol] 0.14 | S. aureus 520; Quantity n [mol] 0.29 | S. aureus 526; Quantity n 0.029 | S. aureus 526; Quantity n 0.14 | S. aureus 526; Quantity n 0.29 | [4]; Quantity n 0.029
10 mm: [3]; Quantity n 0.14
34 mm: [1]; Quantity n 0.29 | S. aureus 38418; Quantity n [mol] 0.29 | S. aureus ATCC 6538; Quantity n 0.14
22 mm: S. aureus 33490; Quantity n [μmol] 0.14 | S. aureus 39105; Quantity n 0.29 | S. epidermidis 1068; Quantity n 0.29 | S. epidermidis 1071; Quantity n 0.14 | S. epidermidis 563; Quantity n 0.14
24 mm: S. epidermidis 563; Quantity n 0.29 | S. epidermidis 847; Quantity n [mol] 0.29
32 mm: [1]; Quantity n 0.14 | S. epidermidis 125; Quantity n 0.29

CC1=C(C(=O)O)N2C(=O)C(NC(=O)C(NC3=C(C(N)=O)C(=O)C=CC3=O)c3ccccc3)C2SC1 (stereo not drawn) [1f, 7-[2-(2-carbamoyl-3,6-dioxocyclohexa-1,4-dienylamino)-2-phenyl-acetylamino]-desacetoxycephalosporanic acid]
22 mm: S. epidermidis 125; Quantity n 0.1
30 mm: [1]; Quantity n 0.1 | B. subtilis AWD 166; Quantity n 0.1 | S. aureus 38418; Quantity n [mol] 0.2 | S. aureus ATCC 6538; Quantity n 0.1
16 mm: S. aureus 33490; Quantity n [μmol] 0.2 | S. epidermidis 1068; Quantity n 0.2 | S. epidermidis 1071; Quantity n 0.1 | S. epidermidis 847; Quantity n [mol] 0.1
12 mm: S. aureus 39105; Quantity n 0.2 | S. epidermidis 1068; Quantity n 0.1
34 mm: S. aureus ATCC 6538; Quantity n 0.2
14 mm: S. aureus 33490; Quantity n [μmol] 0.1 | S. aureus 36881; Quantity n 0.2 | S. aureus 38418; Quantity n [mol] 0.02
20 mm: [1]; Quantity n 0.02 | S. aureus ATCC 6538; Quantity n 0.02 | S. epidermidis 847; Quantity n [mol] 0.2
10 mm: [3]; Quantity n 0.2 | [4]; Quantity n 0.2 | S. epidermidis 125; Quantity n 0.02
8 mm: S. epidermidis 1071; Quantity n 0.02
24 mm: B. subtilis AWD 166; Quantity n 0.02 | S. aureus 38418; Quantity n [mol] 0.1 | S. epidermidis 563; Quantity n 0.2
28 mm: S. epidermidis 125; Quantity n 0.2
r: [2]; Quantity n 0.02 | [2]; Quantity n 0.1 | [2]; Quantity n 0.2 | [3]; Quantity n 0.02 | [3]; Quantity n 0.1 | E. faecalis 945; Quantity n 0.02 | E. faecalis 945; Quantity n 0.1 | E. faecalis 945; Quantity n 0.2 | S. aureus 33490; Quantity n [μmol] 0.02 | S. aureus 34289; Quantity n [mol] 0.02 | S. aureus 34289; Quantity n [mol] 0.1 | S. aureus 34289; Quantity n [mol] 0.2 | S. aureus 36881; Quantity n 0.02 | S. aureus 36881; Quantity n 0.1 | S. aureus 39105; Quantity n 0.02 | S. aureus 39105; Quantity n 0.1 | S. aureus 520; Quantity n [mol] 0.02 | S. aureus 520; Quantity n [mol] 0.1 | S. aureus 520; Quantity n [mol] 0.2 | S. aureus 526; Quantity n 0.02 | S. aureus 526; Quantity n 0.1 | S. aureus 526; Quantity n 0.2 | [4]; Quantity n 0.02 | [4]; Quantity n 0.1 | S. epidermidis 1068; Quantity n 0.02 | S. epidermidis 563; Quantity n 0.02 | S. epidermidis 847; Quantity n [mol] 0.02
32 mm: [1]; Quantity n 0.2 | B. subtilis AWD 166; Quantity n 0.2
18 mm: S. epidermidis 1071; Quantity n 0.2 | S. epidermidis 563; Quantity n 0.1
